Experimental data as given in US8575173B2, “Piperazinyl 3-aminopyrrolidine derivatives as a CCR2 antagonists” (Yang Ji Chemical Co., Ltd., priority 2009, dated 2013).

Assays:
CCR2 [1] = target: T1, CCR2 (Homo sapiens, UniProt P41597); test: CCR2 receptor protein binding assay ([125I]-MCP1); parameters: purchased Perkinelmer, USA; host or cells: CHO cell membranes; details: [125I]-MCP1 binding, CCR2 membrane expressed in CHO cell; read-out: Affinity to CCR2 receptor, IC50
Procedure: The buffer used for receptor binding assay is 50 mM Hepes (pH 7.4) containing 5 mM MgCl2, 1 mM CaCl2 and 0.5% BSA. The resultant reaction mixture in final volume 0.25 ml is prepared by adding CCR2 membrane (10 μg/well), [^125I]-MCP1 to test drug in 96-well plate on [^125I]-MCP1 binding assay and is cultivated on 27° C. for 60 min.
After incubation, reaction is terminated with fast filtering through Wallac filtermat A GF/C glass fiber filter (Wallac, Finland) pre-wetted in 0.5% PEI using Inotech harvester (Inotech) and is washed in cold 50 mM Tris-HCl (pH 7.4) buffer solution. After filter is covered with MeltiLex, it is sealed in sample bag, dried on oven, and counted using MicroBeta Plus (Wallac).
[…] is used in non-specific binding measurement.

CHO-K1 = test: Cytotoxicity (cell viability, MTS assay), CHO-K1; format: cell-based; details: 10 μM compound, vs control group
Description: (§1) The MTS (3-(4,5-dimethylthiazol-2-yl)-5-(3-carboxymethoxyphenyl)-2-(4-sulfophenyl)-2H-tetrazolium, inner salt, Promega, U.S.A) assay to THP-1 cell is used to measure cytotoxicity of test compound. The MTS assay is applicable to sensitively measure viability, multiplication and activity of cell and is a method using transformation the yellow MTS into insoluble formazan by dehydrogenase of mitochondria during metabolism of viable cell. The THP-1 cell is proliferated on RPMI-1640 supplemented with 10% fetal bovine serum under 37° C., at 5% CO2 incubator. Cell density is maintained around 0.5×10^6 cells/ml. THP-1 cell is poured into 96-well plate in 1×10^6 cell/ml and treating with 1, 10 μM concentration of test compound, after 24 hours 20 μl of 317 μg/ml MTS is treated to 96-well plate. Cell viability as the he absorbance of crystalline formazan of test group to control group observed at 490 nm using ELISA reader after 1 hour is calculated by following mathematical formula 2. Cell viability(%)=(Absorbance of experimental wells)/(Absorbance of control wells))×100 [Mathematical Formula 2]
(§2) The cell cytotoxicity test is performed to many cell lines, for example HepG2, NIH3T3, CHO-K1, HEK293, in addition to THP-1 illustrated above, and test procedures related to these are same or similar as described method above.

CYP2D6 = CYP2D6 (Homo sapiens, UniProt P10635); test: CYP450 inhibitory activity, CYP2D6; format: in vitro ADME; details: CYP2D6 enzyme membrane, 10 μM compound, read-out: Inhibition of CYP450, % @10 μM: 2D6
Chain of CYP2D6 (P10635 whole entry, the tested form may be a part): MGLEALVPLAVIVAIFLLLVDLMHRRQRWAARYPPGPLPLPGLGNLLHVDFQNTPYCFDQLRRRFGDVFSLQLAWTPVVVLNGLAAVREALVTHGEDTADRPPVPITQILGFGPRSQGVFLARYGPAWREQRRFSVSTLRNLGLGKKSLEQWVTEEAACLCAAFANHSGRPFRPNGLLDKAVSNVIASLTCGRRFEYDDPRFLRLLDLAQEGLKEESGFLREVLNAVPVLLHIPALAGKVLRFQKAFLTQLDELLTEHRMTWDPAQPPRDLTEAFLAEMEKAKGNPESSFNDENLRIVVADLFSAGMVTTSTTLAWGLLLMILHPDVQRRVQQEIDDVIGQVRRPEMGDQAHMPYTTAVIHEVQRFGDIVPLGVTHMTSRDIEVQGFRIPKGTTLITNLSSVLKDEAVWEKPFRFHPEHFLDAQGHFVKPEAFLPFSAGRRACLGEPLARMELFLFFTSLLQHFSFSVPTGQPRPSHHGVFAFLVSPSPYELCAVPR
Procedure: Luciferin detection reagent is dissolved in buffer solution and each CYP enzyme membrane is prepared. […] After reacting with 12.5 μl NADPH regeneration reagent of CYP enzyme for 30 min, adding 25 μl luciferin detection reagent and keeping for 20 min, luminescence is measured at Fusion α.

CCR2b = target: T2, CCR2b (Homo sapiens, UniProt P41597); test: CCR2 inhibitory effect on Ca2+ flux (HEK293/CCR2b, MCP-1 stimulated); format: cell-based; details: HEK293/CCR2b cells, MCP-1 added; read-out: Blocking Ca^2+ flux, IC50
T2 construct: expressed in transfected cells; host or cells: HEK293
T2 sequence (P41597 1-360 isoform P41597-2): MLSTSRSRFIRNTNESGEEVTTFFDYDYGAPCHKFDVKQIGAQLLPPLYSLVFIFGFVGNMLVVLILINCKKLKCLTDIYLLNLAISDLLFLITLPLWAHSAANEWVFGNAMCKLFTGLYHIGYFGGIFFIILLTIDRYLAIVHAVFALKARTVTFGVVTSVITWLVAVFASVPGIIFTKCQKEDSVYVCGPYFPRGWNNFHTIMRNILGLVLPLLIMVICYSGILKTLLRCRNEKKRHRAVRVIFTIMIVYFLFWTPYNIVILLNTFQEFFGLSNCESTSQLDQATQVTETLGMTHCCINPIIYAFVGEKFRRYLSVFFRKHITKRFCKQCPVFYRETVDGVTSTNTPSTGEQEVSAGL
Procedure: After seeding CCR2b transformed cell (HEK293/CCR2b) on black-clear bottom plate coated with lysine, it was adapted for 24 hours and exchanged into serum free media (DMEM) and allowed to cultivate overnight. Next day After the compound is treated with Flour-4 (calcium dye, Molecular probe) and cultivated for 50 min on incubator, it is washed calcium-free buffer solution and pretreated for 10-15 min. It is added with MCP-1 and its signal is measured with FlexStation^II (Molecular device).

HepG2 = test: Cytotoxicity (cell viability, MTS assay), HepG2; format: cell-based; details: 10 μM compound, vs control group
Description: as §1, §2

CYP1A2 = target: T3, CYP1A2 (Homo sapiens, UniProt P05177); test: CYP450 inhibitory activity, CYP1A2; format: in vitro ADME; details: CYP1A2 enzyme membrane, 10 μM compound, read-out: Inhibition of CYP450, % @10 μM: 1A2
T3 sequence (P05177 1-516): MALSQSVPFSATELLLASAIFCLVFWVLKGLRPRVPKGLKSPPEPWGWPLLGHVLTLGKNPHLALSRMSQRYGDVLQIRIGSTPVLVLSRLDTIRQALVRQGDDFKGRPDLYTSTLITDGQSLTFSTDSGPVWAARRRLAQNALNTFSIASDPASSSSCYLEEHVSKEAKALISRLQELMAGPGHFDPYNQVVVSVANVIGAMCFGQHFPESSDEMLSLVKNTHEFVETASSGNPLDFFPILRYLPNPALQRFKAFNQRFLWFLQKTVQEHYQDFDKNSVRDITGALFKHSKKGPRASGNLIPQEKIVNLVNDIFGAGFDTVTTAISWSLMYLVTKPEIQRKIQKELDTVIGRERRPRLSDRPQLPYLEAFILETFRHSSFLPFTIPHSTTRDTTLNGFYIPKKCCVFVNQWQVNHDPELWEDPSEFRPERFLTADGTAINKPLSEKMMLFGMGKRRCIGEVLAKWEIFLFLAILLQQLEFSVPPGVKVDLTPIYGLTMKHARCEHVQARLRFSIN
Procedure: (§3) It is analyzed inhibitory activity assay on 5 types (CYP3A4, 2C9, 2C19, 2D6, 1A2) of 11 types CYP450, drug metabolic enzyme. Luciferin detection reagent is dissolved in buffer solution and each CYP enzyme membrane is prepared.
(§4) 4-fold concentration of the compound in 6.25 μl is prepared, and added to 6.25 μl mixture containing enzyme and proper different substrate depending on enzyme types, and kept for 10 min. After reacting with 12.5 μl NADPH regeneration reagent of CYP enzyme for 30 min, adding 25 μl luciferin detection reagent and keeping for 20 min, luminescence is measured at Fusion α.

CYP2C9 = CYP2C9 (Homo sapiens, UniProt P11712); test: CYP450 inhibitory activity, CYP2C9; format: in vitro ADME; details: CYP2C9 enzyme membrane, 10 μM compound, read-out: Inhibition of CYP450, % @10 μM: 2C9
Chain of CYP2C9 (P11712 whole entry): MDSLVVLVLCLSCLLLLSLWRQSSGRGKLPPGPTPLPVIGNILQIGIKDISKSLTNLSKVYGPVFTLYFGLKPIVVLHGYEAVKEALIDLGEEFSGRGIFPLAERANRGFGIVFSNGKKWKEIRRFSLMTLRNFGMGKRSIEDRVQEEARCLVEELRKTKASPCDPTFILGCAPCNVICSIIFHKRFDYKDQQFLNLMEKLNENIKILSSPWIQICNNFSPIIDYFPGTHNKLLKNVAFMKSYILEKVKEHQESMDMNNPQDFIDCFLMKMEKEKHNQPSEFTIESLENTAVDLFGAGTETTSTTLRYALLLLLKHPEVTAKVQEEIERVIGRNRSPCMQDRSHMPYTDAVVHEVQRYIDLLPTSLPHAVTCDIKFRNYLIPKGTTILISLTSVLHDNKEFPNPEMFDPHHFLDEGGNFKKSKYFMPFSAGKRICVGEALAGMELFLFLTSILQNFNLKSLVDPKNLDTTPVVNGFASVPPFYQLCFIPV
Procedure: as §3, §4

CYP3A4 = CYP3A4 (Homo sapiens, UniProt P08684); test: CYP450 inhibitory activity, CYP3A4; format: in vitro ADME; details: CYP3A4 enzyme membrane, 10 μM compound, read-out: Inhibition of CYP450, % @10 μM: 3A4
Chain of CYP3A4 (P08684 whole entry): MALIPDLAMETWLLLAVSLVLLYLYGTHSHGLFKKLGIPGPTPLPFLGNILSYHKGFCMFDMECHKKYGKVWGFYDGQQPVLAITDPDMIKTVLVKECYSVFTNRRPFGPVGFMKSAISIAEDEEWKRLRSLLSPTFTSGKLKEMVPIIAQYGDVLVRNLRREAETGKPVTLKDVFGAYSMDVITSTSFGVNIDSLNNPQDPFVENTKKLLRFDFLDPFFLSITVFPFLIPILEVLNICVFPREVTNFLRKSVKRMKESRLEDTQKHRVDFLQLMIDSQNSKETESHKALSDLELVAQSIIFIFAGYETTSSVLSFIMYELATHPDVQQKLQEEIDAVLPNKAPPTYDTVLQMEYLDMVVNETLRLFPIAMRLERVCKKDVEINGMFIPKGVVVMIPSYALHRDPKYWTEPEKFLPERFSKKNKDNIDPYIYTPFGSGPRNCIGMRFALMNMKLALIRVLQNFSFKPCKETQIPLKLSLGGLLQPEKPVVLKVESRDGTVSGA
Procedure: as §3, §4

NIH 3T3 = test: Cytotoxicity (cell viability, MTS assay), NIH 3T3; format: cell-based; details: 10 μM compound, vs control group
Description: as §1, §2

HEK 293 = test: Cytotoxicity (cell viability, MTS assay), HEK 293; format: cell-based; details: 10 μM compound, vs control group
Description: as §1, §2

CYP2C19 = CYP2C19 (Homo sapiens, UniProt P33261); test: CYP450 inhibitory activity, CYP2C19; format: in vitro ADME; details: CYP2C19 enzyme membrane, 10 μM compound, read-out: Inhibition of CYP450, % @10 μM: 2C19
Chain of CYP2C19 (P33261 whole entry): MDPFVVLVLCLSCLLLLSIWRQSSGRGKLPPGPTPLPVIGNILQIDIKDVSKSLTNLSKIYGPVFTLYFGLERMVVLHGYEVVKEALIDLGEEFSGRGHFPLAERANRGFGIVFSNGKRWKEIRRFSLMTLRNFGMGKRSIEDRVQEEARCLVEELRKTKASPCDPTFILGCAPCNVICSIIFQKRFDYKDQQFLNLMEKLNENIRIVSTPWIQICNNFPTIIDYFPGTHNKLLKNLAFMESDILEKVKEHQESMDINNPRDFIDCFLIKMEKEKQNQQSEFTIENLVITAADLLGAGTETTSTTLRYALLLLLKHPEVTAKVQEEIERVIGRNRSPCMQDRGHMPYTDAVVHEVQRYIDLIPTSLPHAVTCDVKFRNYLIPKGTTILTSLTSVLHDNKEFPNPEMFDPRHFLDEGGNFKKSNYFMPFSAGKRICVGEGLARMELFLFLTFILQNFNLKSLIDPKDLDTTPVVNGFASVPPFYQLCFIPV
Procedure: as §3, §4

CCR2 [2] = target: T1, CCR2; test: Inhibitory effect on MCP-1 induced chemotaxis of THP-1 cells; format: cell-based; parameters: endogenous in cells; host or cells: THP-1; details: hMCP-1 10 ng/ml, 2 hours, read-out: Inhibition of Chemotaxis, IC50
Procedure: Antagonistic effect on the compound on CCR2 activity was measured by leukocyte chemotaxis assay using a proper cell line.
The used cell line is THP-1 and it is proliferated RPMI-1640 supplemented with 10% fetal calf serum under 37° C. at 5% CO2 incubator. Cell density was maintained near about 0.5×10^6 cells/ml.
Cell is allowed to have chemotaxis under 37° C., 5% CO2 incubator for 2 hours. After incubating for 2 hours, cells which is not moved from the upper side of filter are removed by wiping the filter with cotton swab.
The cells moved to lower chamber was measured using fluorescent plate reader under λexcite=480 nm, λexit=520 nm.
The chemotaxis may be described as chemotaxis coefficient, ratio between mean value of cells moved under existence of MCP-1 and mean value of cells moved under absence of chemokine.

T1 sequence (P41597 whole entry): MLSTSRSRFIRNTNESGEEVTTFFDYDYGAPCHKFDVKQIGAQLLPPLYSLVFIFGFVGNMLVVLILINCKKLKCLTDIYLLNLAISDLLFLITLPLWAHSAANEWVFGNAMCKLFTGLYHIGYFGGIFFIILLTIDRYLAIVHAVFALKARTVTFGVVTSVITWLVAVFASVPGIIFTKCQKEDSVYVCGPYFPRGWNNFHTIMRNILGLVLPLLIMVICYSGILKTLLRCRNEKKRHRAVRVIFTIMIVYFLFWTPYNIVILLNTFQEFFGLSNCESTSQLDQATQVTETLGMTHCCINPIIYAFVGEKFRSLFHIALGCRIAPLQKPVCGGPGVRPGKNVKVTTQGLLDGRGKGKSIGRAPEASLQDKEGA

Row | Structure (SMILES) | IC50 (CCR2 [1]) | Cell viability, % @10 μM: CHO-K1 (CHO-K1) | inhibition at 30 min, 10 µM (CYP2D6) | IC50 (CCR2b) | Cell viability, % @10 μM: HepG2 (HepG2) | inhibition at 30 min, 10 µM (CYP1A2) | inhibition at 30 min, 10 µM (CYP2C9) | inhibition at 30 min, 10 µM (CYP3A4) | Cell viability, % @10 μM: NIH 3T3 (NIH 3T3) | Cell viability, % @10 μM: HEK 293 (HEK 293) | inhibition at 30 min, 10 µM (CYP2C19) | IC50 (CCR2 [2])
1 | O=C(CNC(=O)c1cccc(C(F)(F)F)c1)N[C@@H]1CCN(CCN2CCN(C(=O)c3ccccc3)CC2)C1 [Example 6, N-{[1-(2-(4-benzoylpiperazine-1-yl)ethyl)-pyrrolidine-(3R)-yl-carbamoyl]-methyl}-3-trifluoromethylbenzamide] | 990 nM | 84.6% | 8.5% | 18 nM | 73.5% | 23.5% | 23.6% | 6.5% | 70.6% | 59.3% | 14.2% | 9 nM
2 | Cc1ccccc1C(=O)N1CCN(CCN2CC[C@@H](NC(=O)CNC(=O)c3cccc(C(F)(F)F)c3)C2)CC1 [Example 7, N-{[1-(2-(4-(2-methylbenzoyl)piperazine-1-yl)ethyl)-pyrrolidine-(3R)-yl-carbamoyl]-methyl}-3-trifluoromethylbenzamide] | 4440 nM | 80.1% | -3.5% | 120 nM | 105.8% | 6.6% | 19% | 28.2% | 73.0% | 66.9% | 9.5% | 70 nM
